This passage reports Kd and IC50 results from ChEMBL document CHEMBL1132239, “Tricyclic farnesyl protein transferase inhibitors: crystallographic and calorimetric studies of structure-activity relationships” (J Med Chem, 1999).

Each structure is given as a SMILES string.

Series [1] in a line: Dissociation constant of the Compound. It counts as physicochemical.
Series [2] has as its target Protein farnesyltransferase (Homo sapiens, UniProt P49354+P49356). The series is described as follows: Inhibition of Farnesyl protein transferase. It is filed as protein-complex assay.

As for `O=C(Cc1cc[n+]([O-])cc1)N1CCC(=C2c3ccc(Cl)cc3CCc3cccnc32)CC1`, binding in series [1] was characterised by a dissociation constant (Kd) of 240 nM. Turning to `O=C(Cc1cc[n+]([O-])cc1)N1CCC(=C2c3ncc(Br)cc3CCc3cc(Cl)cc(Br)c32)CC1`, the IC50 in series [2] was found to be 3.9 nM. For the same compound, in series [1], the Kd came to 5.1 nM. With `O=C(Cc1cc[n+]([O-])cc1)N1CCN([C@H]2c3ccc(Cl)cc3CCc3cc(Br)cnc32)CC1`, the Kd in series [1] amounted to 21 nM. Take `O=C(Cc1cc[n+]([O-])cc1)N1CCN([C@@H]2c3ccc(Cl)cc3CCc3cc(Br)cnc32)CC1`: the Kd in series [1] amounted to 32 nM. The compound `O=C(Cc1cc[n+]([O-])cc1)N1CCC(=C2c3ccc(Cl)cc3CCc3cc(Br)cnc32)CC1` had an IC50 in series [2] of 52 nM. For the same compound, in series [1], the affinity, expressed as Kd, was 17.5 nM.
